From US8309558B2, “Compounds for the treatment of hepatitis C” (Bristol-Myers Squibb Company, priority 2008, dated 2012)
Where two headings read alike, the source gives them in different places.

Experiments:
[1] = molecular target: T1, HCV NS5B RdRp genotype 1b (Hepatitis C virus genotype 1b, UniProt Q9WMX2); assay: Standard HCV NS5B RdRp enzyme assay; format: biochemical; conditions: HCV NS5B RdRp genotype 1b, read-out: IC50
T1 construct: The protein was expressed with an 18 amino acid C-terminal truncation to enhance the solubility; made in house; host or cells: E. coli BL21(DE3), pET21a vector
T1 sequence (Q9WMX2 2420-2992): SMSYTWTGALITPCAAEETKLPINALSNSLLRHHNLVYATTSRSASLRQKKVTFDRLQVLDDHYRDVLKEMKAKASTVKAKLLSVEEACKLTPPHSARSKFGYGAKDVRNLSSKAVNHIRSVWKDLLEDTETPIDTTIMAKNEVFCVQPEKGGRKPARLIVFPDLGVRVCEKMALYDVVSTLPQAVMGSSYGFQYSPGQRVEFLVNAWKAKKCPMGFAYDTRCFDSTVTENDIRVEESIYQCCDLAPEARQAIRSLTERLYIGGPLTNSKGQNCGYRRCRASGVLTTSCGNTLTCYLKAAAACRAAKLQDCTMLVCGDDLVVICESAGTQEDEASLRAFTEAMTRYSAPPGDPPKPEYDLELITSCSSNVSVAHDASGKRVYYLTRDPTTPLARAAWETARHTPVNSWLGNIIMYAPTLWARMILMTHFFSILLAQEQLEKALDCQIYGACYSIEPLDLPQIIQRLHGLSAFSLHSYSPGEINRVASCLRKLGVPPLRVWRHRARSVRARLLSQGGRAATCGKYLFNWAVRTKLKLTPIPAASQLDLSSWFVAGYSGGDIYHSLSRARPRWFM
How it was run: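 Radiometric SPA measuring 3H-UMP incorporation on polyA/biotin-oligo-dT12 (6 nM/180 nM), 0.29 μM total UTP. Enzyme: NS5B 1b lacking last 18 residues, 28 nM final, 30° C for 60 min in 20 mM Hepes pH 7.5, 2.5 mM MgCl2, 2% DMSO. IC50 from seven-point curves.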

HCV replicon cells = assay: HCV replicon FRET / luciferase assay (96-well plates); format: cell-based; conditions: Hepatitis C virus, HCV replicon, read-out: EC50
How it was run: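 Readout was NS3 protease cleavage of an EDANS/DABCYL FRET peptide (20 μM final) in lysed HCV replicon cells, or Renilla luciferase in reporter replicons. Background came from wells with the highest level of control protease inhibitor. EC50 marked the concentration giving 50% signal reduction.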

[2] = untitled table after Table 1b, values without asterisk

SMILES	IC50 ([1]; Table 1b)	EC50 (HCV replicon cells; Table 1b)	IC50 ([1]; Table 1a)	EC50 (HCV replicon cells; Table 1a)	also measured
CNC(=O)c1c(-c2ccc(F)cc2)oc2ccc(-c3cc(OCCc4cccnc4)cc(C(=O)NCC(C)C)c3)cc12	> 10000 nM	1000 to 10000 nM			
CNC(=O)c1c(-c2ccc(F)cc2)oc2ccc(-c3cccc(C(=O)NCCc4cccs4)c3)cc12			250 to 1000 nM	250 to 1000 nM	
CNC(=O)c1c(-c2ccc(F)cc2)oc2ccc(-c3cc(C(=O)NCC(C)C)ccc3OCCc3ccc(Cl)cc3)cc12	> 10000 nM	> 10000 nM			
CNC(=O)c1c(-c2ccc(F)cc2)oc2ccc(-c3cc(OCCN(C)C)cc(C(=O)NCC(C)C)c3)cc12	250 to 1000 nM	250 to 1000 nM			
CNC(=O)c1c(-c2ccc(F)cc2)oc2ccc(OCCOc3ccc(C(C)(C)C)cc3)cc12			> 10000 nM	1000 to 10000 nM	
CNC(=O)c1c(-c2ccc(F)cc2)oc2ccc(-c3cccc(C(=O)N[C@@H](CO)C(N)=O)c3)cc12			1000 to 10000 nM	> 10000 nM	
CNC(=O)c1c(-c2ccc(F)cc2)oc2ccc(-c3ccc(C(=O)N(C)CCC#N)cc3)cc12			1000 to 10000 nM	> 10000 nM	
CNC(=O)c1c(-c2ccc(F)cc2)oc2ccc(-c3cc(C(=O)NC4(c5ccccn5)CC4)c(OCC(N)=O)cc3C)cc12					IC50 ([1]; Table 1d (class symbols)): < 20 nM; EC50 (HCV replicon cells; 24 h, Table 1d (class symbols)): 1 to 250 nM
CNC(=O)c1c(-c2ccc(F)cc2)oc2ccc(-c3cc(C(=O)NC4(c5ccccn5)CC4)c(OCC4CC4)cc3C)cc12					IC50 ([1]; Table 1d (class symbols)): 1 to 250 nM; EC50 (HCV replicon cells; 24 h, Table 1d (class symbols)): 1 to 250 nM
CNC(=O)c1c(-c2ccc(F)cc2)oc2ccc(-c3cc(C(=O)NC4(c5nnc(-c6cccnc6)[nH]5)CC4)ccc3C)cc12	< 250 nM	< 250 nM			
CNC(=O)c1c(-c2ccc(F)cc2)oc2ccc(-c3cccc(C(=O)Nc4cc(C)nn4C)c3)cc12			< 250 nM	< 250 nM	
CCOc1cc(C(=O)NCC(C)C)cc(-c2ccc3oc(-c4ccc(F)cc4)c(C(=O)NC)c3c2)c1	> 500 nM	1000 to 10000 nM			
CNC(=O)c1c(-c2ccc(F)cc2)oc2ccc(-c3ccc(C(=O)NCC(=O)OC)cc3)cc12			> 10000 nM	1000 to 10000 nM	
CNC(=O)c1c(-c2ccc(F)cc2)oc2ccc(-c3ccc(C(=O)NCCc4ccc(OC)cc4)cc3)cc12			> 10000 nM	> 10000 nM	
CNC(=O)c1c(-c2ccc(F)cc2)oc2ccc(-c3cc(C(=O)NC4(c5nnc(C(N)=O)[nH]5)CC4)ccc3C)cc12	< 250 nM	250 to 1000 nM			
CNC(=O)c1c(-c2ccc(F)cc2)oc2ccc(-c3cc(C(=O)NC4(c5nnc(C(C)C)[nH]5)CC4)ccc3C)cc12	< 250 nM	< 250 nM			
CNC(=O)c1c(-c2ccc(F)cc2)oc2ccc(-c3cccc(C(=O)NCc4cccc(F)c4)c3)cc12			< 250 nM	< 250 nM	
CNC(=O)c1c(-c2ccc(F)cc2)oc2ccc(-c3cccc(C(=O)NS(=O)(=O)C(C)(C)C)c3)cc12			< 250 nM	1000 to 10000 nM	
CNC(=O)c1c(-c2ccc(F)cc2)oc2ccc(-c3cccc(C(=O)N[C@@H](C)c4ccc(F)cc4)c3)cc12			< 250 nM	< 250 nM	
CNC(=O)c1c(-c2ccc(F)cc2)oc2ccc(-c3ccc(C(=O)O)cc3)cc12			250 to 1000 nM	1000 to 10000 nM	
CNC(=O)c1c(-c2ccc(F)cc2)oc2cc(N)c(-c3cccc(C(=O)NCC(C)C)c3)cc12	< 250 nM	< 250 nM			
C=CCNC(=O)C(C)(C)NC(=O)c1cccc(-c2ccc3oc(-c4ccc(F)cc4)c(C(=O)NC)c3c2)c1			250 to 1000 nM	250 to 1000 nM	
CNC(=O)c1c(-c2ccc(F)cc2)oc2ccc(-c3cccc(C(=O)N(C)C(C)(C)C)c3)cc12			< 250 nM	< 250 nM	
CNC(=O)c1c(-c2ccc(F)cc2)oc2ccc(-c3cc(C(=O)NC4(c5ccccn5)CC4)ccc3Cl)cc12 [drawing 605]					IC50 ([1]; untitled table after Table 1b): 10 nM; EC50 (HCV replicon cells; [2]): 1.83 nM

SMILES	IC50 ([1]; Table 1b)	EC50 (HCV replicon cells; Table 1b)	IC50 ([1]; Table 1a)	EC50 (HCV replicon cells; Table 1a)	also measured
CNC(=O)c1c(-c2ccc(F)cc2)oc2ccc(-c3ccc(-c4ccccc4OC)c(C(=O)NCC(C)C)c3)cc12	< 250 nM	< 250 nM			
CNC(=O)c1c(-c2ccc(F)cc2)oc2ccc(-c3ccc(OCC(C)C)cc3)cc12			> 10000 nM	> 400 nM	
CNC(=O)c1c(-c2ccc(F)cc2)oc2ccc(-c3cccc(C(=O)Nc4cncc(C(=O)O)c4)c3)cc12			250 to 1000 nM	> 10000 nM	
CNC(=O)c1c(-c2ccc(F)cc2)oc2ccc(-c3cc(C(=O)NC4(c5ccncc5)CC4)ccc3C)cc12 [drawing 501]	< 250 nM	< 250 nM			
CNC(=O)c1c(-c2ccc(F)cc2)oc2cc(N)c(-c3cccc(C(=O)NC(C)(C)c4ccccc4)c3)cc12 [drawing 94]			< 250 nM	< 250 nM	
CNC(=O)c1c(-c2ccc(F)cc2)oc2ccc(-c3cccc(C(=O)NC4(C(=O)NS(=O)(=O)C5CC5)CC4)c3)cc12			< 250 nM	> 10000 nM	
CNC(=O)c1c(-c2ccc(F)cc2)oc2ccc(-c3cccc(C(=O)N[C@H](CO)Cc4c[nH]cn4)c3)cc12			1000 to 10000 nM	1000 to 10000 nM	
CNC(=O)c1c(-c2ccc(F)cc2)oc2ccc(-c3cc(C(=O)NC4(c5ccccc5)CC4)ccc3F)cc12 [drawing 609]					IC50 ([1]; untitled table after Table 1b): 20 nM; EC50 (HCV replicon cells; [2]): 3.57 nM
CNC(=O)c1c(-c2ccc(F)cc2)oc2ccc(-c3ccc(-c4ccnc(N)c4)c(C(=O)NCC(C)C)c3)cc12	< 20 nM	< 250 nM			
CNC(=O)c1c(-c2ccc(F)cc2)oc2ccc(-c3cc(C(=O)NC4(c5cc(C)on5)CC4)c(OC)cc3C)cc12	< 250 nM	< 250 nM			
CNC(=O)c1c(-c2ccc(F)cc2)oc2ccc(-c3cccc(C(=O)NCc4ccc(C)cc4)c3)cc12			< 250 nM	< 250 nM	
CNC(=O)c1c(-c2ccc(F)cc2)oc2cc(N(CCO)S(C)(=O)=O)c(-c3cccc(C(=O)NC4(c5ccc(F)cc5)CC4)c3)cc12	< 250 nM	< 250 nM			
CNC(=O)c1c(-c2ccc(F)cc2)oc2ccc(-c3ccc(-c4ccccc4)c(C(=O)NC(C)(C)c4ccccc4)c3)cc12			< 250 nM	< 250 nM	
CC(C)Oc1cc2c(-c3ncn[nH]3)c(-c3ccc(F)cc3)oc2cc1N(C)S(C)(=O)=O			250 to 1000 nM	1000 to 10000 nM	
CNC(=O)c1c(-c2ccc(F)cc2)oc2cc(N(CCO)S(C)(=O)=O)c(-c3cccc(C(=O)NC(C)(C)C)c3)cc12	< 250 nM	< 250 nM			
CNC(=O)c1c(-c2ccc(F)cc2)oc2ccc(-c3cccc(C(=O)NC(C)(C)CO)c3)cc12			< 250 nM	< 250 nM	
CNC(=O)c1c(-c2ccc(F)cc2)oc2ccc(-c3cccc(C(=O)Nc4ccnn4C)c3)cc12			250 to 1000 nM	250 to 1000 nM	
CNC(=O)c1c(-c2ccc(F)cc2)oc2ccc(-c3cccc(C(=O)NCC4CCOCC4)c3)cc12			< 250 nM	250 to 1000 nM	
CNC(=O)c1c(-c2ccc(F)cc2)oc2ccc(-c3cccc(C(=O)N[C@H](CO)C(=O)OC)c3)cc12			250 to 1000 nM	1000 to 10000 nM	
CNC(=O)c1c(-c2ccc(F)cc2)oc2ccc(-c3ccc(C(=O)N4CC[C@H](NC(C)=O)C4)cc3)cc12			1000 to 10000 nM	1000 to 10000 nM	
CCN(CC)C(=O)c1cccc(-c2ccc3oc(-c4ccc(F)cc4)c(C(=O)NC)c3c2)c1			1000 to 10000 nM	1000 to 10000 nM	
CNC(=O)c1c(-c2ccc(F)cc2)oc2ccc(-c3cc(OC[C@@H]4CCCN4)cc(C(=O)NCC(C)C)c3)cc12	1000 to 10000 nM	1000 to 10000 nM			
CNC(=O)c1c(-c2ccc(F)cc2)oc2ccc(-c3cc(C(=O)NC4(c5ccccn5)CC4)ccc3OCCO)cc12	< 250 nM	< 250 nM			
